# Assay results published in patent US20020065219A1, “Water soluble thiazolyl peptide derivatives” (priority 2000, published 2002).
# Where two headings read alike, the source gives them in different places.
# Key:
# Assay in all cases: MIC, broth micro dilution assay (NCCLS)
# Format in all cases: cell-based
# [1] = test system: Streptococcus pneumoniae A28272
# [2] = test system: Enterococcus faecalis A20688
# [3] = test system: Staphylococcus aureus A15090
# [4] = 50% Mueller-Hinton medium and 50% Todd Hewitt medium, 35° C., 18 hours
# [5] = Mueller-Hinton medium, 35° C., 18 hours
SMILES,"MIC (μg/mL) against Streptococcus pneumoniae A28272 [1, 4] [µg/mL]","MIC (μg/mL) against Enterococcus faecalis A20688 [2, 5] [µg/mL]","MIC (μg/mL) against Staphylococcus aureus A15090 [3, 5] [µg/mL]",other results
CO/C(C)=C1/NC(=O)C(C(C)O)NC(=O)c2csc(n2)-c2cc(O)c(-c3nc(C(=O)NC(CNCCn4cc([N+](=O)[O-])nc4C)C(N)=O)cs3)nc2-c2csc(n2)C2COC(=O)c3c4c5c(cccc5n3O)COC(=O)C(O[C@H]3C[C@](C)(O)[C@H](N(C)C)[C@H](C)O3)C(OC4)C(NC(=O)c3csc1n3)c1nc(cs1)C(=O)N2 (stereo partly drawn) [Example 68],0.5,8.0,2.0,–
CO/C(C)=C1/NC(=O)C(C(C)O)NC(=O)c2csc(n2)-c2cc(O)c(-c3nc(C(=O)NC(CN4CCN(CC(=O)O)CC4)C(N)=O)cs3)nc2-c2csc(n2)C2COC(=O)c3c4c5c(cccc5n3O)COC(=O)C(O[C@H]3C[C@](C)(O)[C@H](N(C)C)[C@H](C)O3)C(OC4)C(NC(=O)c3csc1n3)c1nc(cs1)C(=O)N2 (stereo partly drawn) [Example 39],0.03,1.0,1.0,–
CNC(=O)N(CCN(C)C)CC(NC(=O)c1csc(-c2nc3c(cc2O)-c2nc(cs2)C(=O)NC(C(C)O)C(=O)N/C(=C(\C)OC)c2nc(cs2)C(=O)NC2c4nc(cs4)C(=O)NC(COC(=O)c4c5c6c(cccc6n4O)COC(=O)C(OC4CC(C)(O)C(N(C)C)C(C)O4)C2OC5)c2nc-3cs2)n1)C(N)=O (stereo not drawn) [Example 110],–,–,–,MIC (μg/mL) against Streptococcus pneumoniae A28272 [1]: 0.03 µg/mL; MIC (μg/mL) against Enterococcus faecalis A20688 [2]: 2.0 µg/mL; MIC (μg/mL) against Staphylococcus aureus A15090 [3]: 0.5 µg/mL
COC(C)=C1NC(=O)C(C(C)O)NC(=O)c2csc(n2)-c2cc(O)c(-c3nc(C(=O)NC(CN4CCCC4C(C)O)C(N)=O)cs3)nc2-c2csc(n2)C2COC(=O)c3c4c5c(cccc5n3O)COC(=O)C(OC3CC(C)(O)C(N(C)C)C(C)O3)C(OC4)C(NC(=O)c3csc1n3)c1nc(cs1)C(=O)N2 (stereo not drawn) [Example 86],0.015,0.06,0.007,–
CCC(O)C1CCCN1CC(NC(=O)c1csc(-c2nc3c(cc2O)-c2nc(cs2)C(=O)NC(C(C)O)C(=O)NC(=C(C)OC)c2nc(cs2)C(=O)NC2c4nc(cs4)C(=O)NC(COC(=O)c4c5c6c(cccc6n4O)COC(=O)C(OC4CC(C)(O)C(N(C)C)C(C)O4)C2OC5)c2nc-3cs2)n1)C(N)=O (stereo not drawn) [Example 87],0.007,0.06,0.015,–
CO/C(C)=C1/NC(=O)C(C(C)O)NC(=O)c2csc(n2)-c2cc(O)c(-c3nc(C(=O)NC(CN(C)Cc4ccccc4O[C@@H]4O[C@H](CO)[C@@H](O)[C@H](O)[C@H]4O)C(N)=O)cs3)nc2-c2csc(n2)C2COC(=O)c3c4c5c(cccc5n3O)COC(=O)C(O[C@H]3C[C@](C)(O)[C@H](N(C)C)[C@H](C)O3)C(OC4)C(NC(=O)c3csc1n3)c1nc(cs1)C(=O)N2 (stereo partly drawn) [Example 29],0.015,0.25,0.06,–
COC(C)=C1NC(=O)C(C(C)O)NC(=O)c2csc(n2)-c2cc(O)c(-c3nc(C(=O)NC(CSCC(=O)O)C(N)=O)cs3)nc2-c2csc(n2)C2COC(=O)c3c4c5c(cccc5n3O)COC(=O)C(O)C(OC4)C(NC(=O)c3csc1n3)c1nc(cs1)C(=O)N2 (stereo not drawn) [Example 95],0.03,4.0,0.5,–
COC(C)=C1NC(=O)C(C(C)O)NC(=O)c2csc(n2)-c2cc(O)c(-c3nc(C(=O)NC(CN4CCCC4C(C)O)C(N)=O)cs3)nc2-c2csc(n2)C2COC(=O)c3c4c5c(cccc5n3O)COC(=O)C(OC3CC(C)(O)C(N(C)C)C(C)O3)C(OC4)C(NC(=O)c3csc1n3)c1nc(cs1)C(=O)N2 (stereo not drawn) [Example 88],0.03,0.06,0.007,–
CO/C(C)=C1/NC(=O)C(C(C)O)NC(=O)c2csc(n2)-c2cc(O)c(-c3nc(C(=O)NC(CN(C)CCCn4ccnc4)C(N)=O)cs3)nc2-c2csc(n2)C2COC(=O)c3c4c5c(cccc5n3O)COC(=O)C(O[C@H]3C[C@](C)(O)[C@H](N(C)C)[C@H](C)O3)C(OC4)C(NC(=O)c3csc1n3)c1nc(cs1)C(=O)N2 (stereo partly drawn) [Example 41],0.125,0.5,0.5,–
CO/C(C)=C1/NC(=O)C(C(C)O)NC(=O)c2csc(n2)-c2cc(O)c(-c3nc(C(=O)NC(CN4CCN(c5ccccn5)CC4)C(N)=O)cs3)nc2-c2csc(n2)C2COC(=O)c3c4c5c(cccc5n3O)COC(=O)C(O[C@H]3C[C@](C)(O)[C@H](N(C)C)[C@H](C)O3)C(OC4)C(NC(=O)c3csc1n3)c1nc(cs1)C(=O)N2 (stereo partly drawn) [Example 48],–,–,–,MIC (μg/mL) against Streptococcus pneumoniae A28272 [1]: 0.03 µg/mL; MIC (μg/mL) against Enterococcus faecalis A20688 [2]: 0.25 µg/mL; MIC (μg/mL) against Staphylococcus aureus A15090 [3]: 0.125 µg/mL
COC(C)=C1NC(=O)C(C(C)O)NC(=O)c2csc(n2)-c2cc(O)c(-c3nc(C(=O)NC(CN4CCCC4C(O)c4nccn4C)C(N)=O)cs3)nc2-c2csc(n2)C2COC(=O)c3c4c5c(cccc5n3O)COC(=O)C(OC3CC(C)(O)C(N(C)C)C(C)O3)C(OC4)C(NC(=O)c3csc1n3)c1nc(cs1)C(=O)N2 (stereo not drawn) [Example 91],0.015,0.06,0.03,–
COC(C)=C1NC(=O)C(C(C)O)NC(=O)c2csc(n2)-c2cc(O)c(-c3nc(C(=O)NC(CSCC4NC(=O)NC4=O)C(N)=O)cs3)nc2-c2csc(n2)C2COC(=O)c3c4c5c(cccc5n3O)COC(=O)C(OC3CC(C)(O)C(N(C)C)C(C)O3)C(OC4)C(NC(=O)c3csc1n3)c1nc(cs1)C(=O)N2 (stereo not drawn) [Example 45],0.03,128,4.0,–
CO/C(C)=C1/NC(=O)C(C(C)O)NC(=O)c2csc(n2)-c2cc(O)c(-c3nc(C(=O)NC(CN(C)CCN4CCCCC4)C(N)=O)cs3)nc2-c2csc(n2)C2COC(=O)c3c4c5c(cccc5n3O)COC(=O)C(O[C@H]3C[C@](C)(O)[C@H](N(C)C)[C@H](C)O3)C(OC4)C(NC(=O)c3csc1n3)c1nc(cs1)C(=O)N2 (stereo partly drawn) [Example 30],–,–,–,MIC (μg/mL) against Streptococcus pneumoniae A28272 [1]: 0.03 µg/mL; MIC (μg/mL) against Enterococcus faecalis A20688 [2]: 1.0 µg/mL; MIC (μg/mL) against Staphylococcus aureus A15090 [3]: 0.125 µg/mL
COC(C)=C1NC(=O)C(C(C)O)NC(=O)c2csc(n2)-c2cc(O)c(-c3nc(C(=O)NC(CN4CCC4CO)C(N)=O)cs3)nc2-c2csc(n2)C2COC(=O)c3c4c5c(cccc5n3O)COC(=O)C(OC3CC(C)(O)C(N(C)C)C(C)O3)C(OC4)C(NC(=O)c3csc1n3)c1nc(cs1)C(=O)N2 (stereo not drawn) [Example 84],–,–,–,MIC (μg/mL) against Streptococcus pneumoniae A28272 [1]: 0.125 µg/mL; MIC (μg/mL) against Enterococcus faecalis A20688 [2]: 0.25 µg/mL; MIC (μg/mL) against Staphylococcus aureus A15090 [3]: 0.5 µg/mL
CO/C(C)=C1/NC(=O)C(C(C)O)NC(=O)c2csc(n2)-c2cc(O)c(-c3nc(C(=O)NC(CSCC(=O)O)C(N)=O)cs3)nc2-c2csc(n2)C2COC(=O)c3c4c5c(cccc5n3O)COC(=O)C(O[C@H]3C[C@](C)(O)[C@H](N(C)C)[C@H](C)O3)C(OC4)C(NC(=O)c3csc1n3)c1nc(cs1)C(=O)N2 (stereo partly drawn) [Example 4],–,–,–,"MIC ([1]; Streptococcus pneumoniae, A28272, 18 h, read-out: MIC (μg/mL) against Streptococcus pneumoniae A28272): 0.125 µg/mL; MIC ([2]; Enterococcus faecalis, A20688, 18 h, read-out: MIC (μg/mL) against Enterococcus faecalis A20688): 2 µg/mL; MIC ([3]; Staphylococcus aureus, A15090, 18 h, read-out: MIC (μg/mL) against Staphylococcus aureus A15090): 2 µg/mL"
COC(C)=C1NC(=O)C(C(C)O)NC(=O)c2csc(n2)-c2cc(O)c(-c3nc(C(=O)NC(CN4CCCC4CO)C(N)=O)cs3)nc2-c2csc(n2)C2COC(=O)c3c4c5c(cccc5n3O)COC(=O)C(OC3CC(C)(O)C(N(C)C)C(C)O3)C(OC4)C(NC(=O)c3csc1n3)c1nc(cs1)C(=O)N2 (stereo not drawn) [Example 78],0.007,0.125,0.03,–
COC(C)=C1NC(=O)C(C(C)O)NC(=O)c2csc(n2)-c2cc(O)c(-c3nc(C(=O)NC(CNC(CO)Cc4c[nH]cn4)C(N)=O)cs3)nc2-c2csc(n2)C2COC(=O)c3c4c5c(cccc5n3O)COC(=O)C(OC3CC(C)(O)C(N(C)C)C(C)O3)C(OC4)C(NC(=O)c3csc1n3)c1nc(cs1)C(=O)N2 (stereo not drawn) [Example 67],1.0,8.0,2.0,–
CO/C(C)=C1/NC(=O)C(C(C)O)NC(=O)c2csc(n2)-c2cc(O)c(-c3nc(C(=O)NC(CSCCS(=O)(=O)O)C(N)=O)cs3)nc2-c2csc(n2)C2COC(=O)c3c4c5c(cccc5n3O)COC(=O)C(O[C@H]3C[C@](C)(O)[C@H](N(C)C)[C@H](C)O3)C(OC4)C(NC(=O)c3csc1n3)c1nc(cs1)C(=O)N2 (stereo partly drawn) [Example 46],0.06,128,4.0,–
